According to ChEMBL document CHEMBL1201862, “PubChem BioAssay data set” (2004):
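These data come from cells grown in 96-well plates and exposed to compound for 48 hours at five concentrations. GI50 = concentration required for 50% inhibition of growth.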 Active and inactive are the calls of the source. Rule as the data show it: active = GI50 up to about 1.1 µM and inactive = higher.

Legend:
Assay in all cases: NCI tumour cell line growth inhibition, 48 h
ACHN = system: ACHN
SF-295 = system: SF-295
HOP-62 = system: HOP-62
CCRF-CEM = system: CCRF-CEM
LOX IMVI = system: LOX IMVI
SNB-78 = system: SNB-78
OVCAR-4 = system: OVCAR-4
A498 = system: A498
RXF 393 = system: RXF 393
SK-MEL-5 = system: SK-MEL-5
M14 = system: M14
SK-MEL-28 = system: SK-MEL-28
SK-MEL-2 = system: SK-MEL-2
UO-31 = system: UO-31
SK-OV-3 = system: SK-OV-3

Measured: GI50

Cc1ccc(C)c(NC(=O)CC/C(=N\NC(=O)c2c(O)ccc3ccccc23)C(C)C(=O)c2ccc(O)cc2)c1 (stereo not given)
inactive: ACHN 25.2 µM | SF-295 37.2 µM | HOP-62 49.5 µM | CCRF-CEM 15.2 µM | LOX IMVI 18.7 µM | SNB-78 36.2 µM | OVCAR-4 29.9 µM | A498 60.8 µM | RXF 393 51.9 µM | SK-MEL-5 41.3 µM | M14 16.9 µM | SK-MEL-28 49 µM | SK-MEL-2 24.7 µM | UO-31 17.9 µM

O=C(/C=C/c1c(O)ccc2ccccc12)c1ccccc1Cl
inactive: ACHN 34.3 µM | SF-295 23.2 µM | HOP-62 76.6 µM | SK-OV-3 > 100 µM | CCRF-CEM 17.3 µM | LOX IMVI 24.2 µM | SNB-78 44.4 µM | OVCAR-4 39 µM | A498 82 µM | RXF 393 26.2 µM | SK-MEL-5 18.2 µM | M14 18.5 µM | SK-MEL-28 23 µM | SK-MEL-2 27.7 µM | UO-31 49.1 µM

Clc1cccc(Cl)c1C1SCc2nc3ccccc3n21 (stereo not given)
inactive: ACHN > 100 µM | SF-295 > 100 µM | HOP-62 > 100 µM | SK-OV-3 > 100 µM | CCRF-CEM 54.5 µM | LOX IMVI > 100 µM | SNB-78 > 100 µM | OVCAR-4 83.9 µM | A498 > 100 µM | RXF 393 > 100 µM | SK-MEL-5 9.04 µM | M14 > 100 µM | UO-31 > 100 µM

Cn1c(=O)c2c(nc3n2CCC(=O)N3)n(C)c1=O
inactive: ACHN > 100 µM | SF-295 > 100 µM | HOP-62 > 100 µM | SK-OV-3 > 100 µM | CCRF-CEM > 100 µM | LOX IMVI > 100 µM | SNB-78 > 100 µM | OVCAR-4 > 100 µM | A498 > 100 µM | RXF 393 > 100 µM | SK-MEL-5 > 100 µM | SK-MEL-28 > 100 µM | SK-MEL-2 > 100 µM | UO-31 > 100 µM

CN(C)CCNC(=O)c1cccc2[nH]c(-c3cccnc3)nc12
inactive: ACHN 16.9 µM | SF-295 30.5 µM | HOP-62 18.5 µM | SK-OV-3 22.6 µM | CCRF-CEM 28.4 µM | LOX IMVI 18.1 µM | SNB-78 35 µM | OVCAR-4 29.3 µM | A498 14.2 µM | RXF 393 16.9 µM | SK-MEL-5 16.9 µM | M14 20.9 µM | SK-MEL-28 31.7 µM | SK-MEL-2 25.8 µM | UO-31 17.8 µM

Brc1cc(C2OCCCO2)ccc1OCc1ccccc1
inactive: ACHN 73.6 µM | SF-295 52.8 µM | HOP-62 43.9 µM | SK-OV-3 > 100 µM | CCRF-CEM 41.2 µM | LOX IMVI 25.8 µM | SNB-78 34.8 µM | OVCAR-4 31.2 µM | A498 > 100 µM | RXF 393 67.9 µM | SK-MEL-5 27.2 µM | M14 33.5 µM | SK-MEL-28 > 100 µM | SK-MEL-2 81.7 µM | UO-31 52.4 µM

N#C/C(=C\c1cc(OCc2ccccc2)c(OCc2ccccc2)cn1)C(N)=O
inactive: ACHN > 100 µM | SF-295 > 100 µM | HOP-62 > 100 µM | SK-OV-3 > 100 µM | CCRF-CEM 32.1 µM | LOX IMVI 30.5 µM | SNB-78 > 100 µM | OVCAR-4 > 100 µM | A498 > 100 µM | RXF 393 > 100 µM | SK-MEL-5 > 100 µM | M14 > 100 µM | SK-MEL-28 > 100 µM | SK-MEL-2 > 100 µM | UO-31 > 100 µM

O=C(NCCCC/N=c1/cccccc1NCCCCNC(=O)OCc1ccccc1)OCc1ccccc1
inactive: ACHN 23.2 µM | SF-295 13.5 µM | HOP-62 21.2 µM | SK-OV-3 20.5 µM | CCRF-CEM 16.6 µM | LOX IMVI 16.4 µM | SNB-78 24.6 µM | OVCAR-4 18.9 µM | A498 > 10 µM | RXF 393 17.8 µM | SK-MEL-5 16.4 µM | M14 14.5 µM | SK-MEL-28 22.1 µM | SK-MEL-2 18.8 µM | UO-31 7.43 µM

CCCCCCCCC(=O)NCCCNCCCNC(=O)CCCCCCCC
inactive: ACHN 5.75 µM | SF-295 5.65 µM | HOP-62 13.8 µM | SK-OV-3 14.3 µM | CCRF-CEM 3.28 µM | LOX IMVI 1.77 µM | SNB-78 10.9 µM | OVCAR-4 14.7 µM | A498 16.9 µM | RXF 393 8.89 µM | SK-MEL-5 3.82 µM | M14 2.07 µM | SK-MEL-28 12.3 µM | SK-MEL-2 3.25 µM | UO-31 13.2 µM

O=C1C=CC2(CCCCCCC2=O)CC1 (stereo not given)
inactive: ACHN > 100 µM | SF-295 > 100 µM | HOP-62 > 100 µM | SK-OV-3 > 100 µM | CCRF-CEM > 100 µM | LOX IMVI 44.9 µM | SNB-78 > 100 µM | OVCAR-4 > 100 µM | A498 > 100 µM | RXF 393 > 100 µM | SK-MEL-5 > 100 µM | M14 > 100 µM | SK-MEL-28 > 100 µM | UO-31 > 100 µM
